Where a name gives a salt, the structure may show the parent alone.
Experiments:
[1] = tested on: MCF7 cells; test: Inhibitory effect on MCF7 cell proliferation (CellTiter-Glo); type: cell-based; details: Homo sapiens, 144 h, 6 days incubation, luminescence cell viability readout
Experimental: MCF7 cells (TCHu74, National Collection of Authenticated Cell Cultures) were cultured in an MEM (GE Healthcare, SH30024.01) complete culture medium containing 10% fetal bovine serum. On day 1 of the experiment, MCF7 cells were seeded into a 96-well plate at a density of 3,000 cells/well using an MEM culture medium containing 2% fetal bovine serum, with each well containing 135 μL of cell suspension. The plate was incubated overnight in a 37° C., 5% CO2 cell incubator. The next day, the test compound, at different concentrations in the culture medium, was added at 15 μL/well. The final concentrations of the compound were 9 concentration points obtained by 4-fold serial dilution from 1000 nM. A blank control containing 0.5% DMSO was set up. The plate was incubated in a 37° C., 5% CO2 cell incubator for 6 days. On day 8, the 96-well cell culture plate was taken out, and CellTiter-Glo® Luminescent Cell Viability Assay (Promega, G7573) was added at 75 µL/well. After the plate was left at room temperature for 10 min, luminescence signal values were measured using a multilabel microplate reader (PerkinElmer, VICTOR 3).

[2] = tested on: MCF-7 (Y537S) human breast cancer cells xenograft tumors; test: Efficacy against MCF-7 (Y537S) xenograft tumors in BEIGE SCID mice; type: in vivo; details: for Mean tumor volume D0: D0 (day of grouping, before dosing)
Experimental: To evaluate the inhibitory effect of compound I on the growth of xenograft tumors of MCF-7 (Y537S) human breast cancer cells in BEIGE SCID mice.
Compound I. A 2% Tween 80+98% PEG-400 solution was used.
Test animals: female BEIGE SCID mice, purchased from Beijing Vital River Laboratory Animal Technology Co., Ltd. (certificate No. SCXK (Beijing) 2016-0006), weighing about 19 g on purchase.
Housing conditions: 5 animals/cage, a 12/12-hour light/dark cycle, a constant temperature of 23±1° C. with humidity at 50 to 60%, ad libitum access to food and water.
After acclimatization, BEIGE SCID mice were grouped as follows:
MCF-7 (Y537S) cells in the logarithmic growth phase were subcutaneously inoculated into the right flank of female BEIGE SCID mice at 1.0×10^7/mouse/200 μL (containing 100 μL of matrigel). After 18 days, when the tumor volume of tumor-bearing mice reached about 170 mm^3, the mice were randomly divided into 4 groups of 8 according to tumor volume and body weight: a vehicle control group, a compound I 5 mpk group, a compound I 15 mpk group, and a compound I 45 mpk group. The day of grouping was set as Do, and intragastric administration was started and performed once a day for 28 days. The 28th day post-dose was set as D28 (Table 1). The tumor volume of tumor-bearing mice was measured with a vernier caliper twice a week.
All data were plotted and statistically analyzed using Excel and GraphPad Prism 8 software.
The calculation formula for tumor volume (V) was: V=½×a×b2, where a and b represent length and width, respectively.
Relative tumor proliferation rate T/C (%)=(T−T0)/(C−C0)×100(%), where T and C represent the tumor volumes of the treatment groups and the control group at the end of the experiment; T0 and C0 represent the tumor volumes at the beginning of the experiment.
Tumor growth inhibition rate TGI (%)=1−T/C (%). If TGI (%) exceeds 100%, its specific value will not be shown; instead, it will be represented as >100%. Tumor regression (%)=[(T0−T)/T0]×100(%).

[3] = DVS (dynamic vapor sorption) hygroscopicity test; type: physicochemical
Experimental: DVS refers to dynamic vapor sorption: Surface Measurement Systems instrinsic was adopted; the humidity started at 50%, the humidity range of the investigation was 0%-95%, and the humidity was increased in increments of 10%; the criterion was that each gradient mass change dM/dT is ≤0.002%, TMAX 360 min, two cycles.

[4] = Influencing factor stability (light, high temperature, high humidity); type: physicochemical
Experimental: Samples of hydrochloride crystal form I were spread out in open vessels and subjected to 1-month stability tests under light exposure (4500 Lux), high temperature (40° C. and 60° C.), and high humidity (RH 75% and RH 92.5%) conditions.

[5] = Long-term/accelerated stability; type: physicochemical
Experimental: Hydrochloride crystal form I was left to stand under 25° C./60% RH and 40° C./75% RH conditions to test its stability.

CC(C)C[C@H]1CCc2cc(O)ccc2[C@H]1c1ccc(N2CCC(CN3CCN(c4ccc5c(c4)CN([C@H]4CCC(=O)NC4=O)C5=O)CC3)CC2)cc1 [Compound I, (S)-3-(5-(4-((1-(4-((1R,2R)-6-hydroxy-2-isobutyl-1,2,3,4-tetrahydronaphthalen-1-yl)phenyl)piperidin-4-yl)methyl)piperazin-1-yl)-1-oxoisoindolin-2-yl)piperidine-2,6-dione]
IC50 [1]: 0.59 nM
Number of remaining animals/group ([2]; 5 mpk i.g. qd/28 d): 8/8
Mean tumor volume D0 ([2]; 5 mpk i.g. qd/28 d): 170.2 mm^3
Mean tumor volume D28 ([2]; 5 mpk i.g. qd/28 d): 305.0 mm^3
TGI (%) D28 ([2]; 5 mpk i.g. qd/28 d): 72%
Number of remaining animals/group ([2]; 15 mpk i.g. qd/28 d): 8/8
Mean tumor volume D0 ([2]; 15 mpk i.g. qd/28 d): 168.2 mm^3
Mean tumor volume D28 ([2]; 15 mpk i.g. qd/28 d): 219.7 mm^3
TGI (%) D28 ([2]; 15 mpk i.g. qd/28 d): 89%
Number of remaining animals/group ([2]; 45 mpk i.g. qd/28 d): 8/8
Mean tumor volume D0 ([2]; 45 mpk i.g. qd/28 d): 168.6 mm^3
Mean tumor volume D28 ([2]; 45 mpk i.g. qd/28 d): 192.0 mm^3
TGI (%) D28 ([2]; 45 mpk i.g. qd/28 d): 95%

CC(C)C[C@H]1CCc2cc(O)ccc2[C@H]1c1ccc(N2CCC(CN3CCN(c4ccc5c(c4)CN([C@H]4CCC(=O)NC4=O)C5=O)CC3)CC2)cc1 [hydrochloride crystal form I, (S)-3-(5-(4-((1-(4-((1R,2R)-6-hydroxy-2-isobutyl-1,2,3,4-tetrahydronaphthalen-1-yl)phenyl)piperidin-4-yl)methyl)piperazin-1-yl)-1-oxoisoindolin-2-yl)piperidine-2,6-dione]
hygroscopic weight gain ([3]; accelerated experimental conditions, 70% RH): about 7.3%
hygroscopic weight gain ([3]; extreme conditions, 90% RH): about 8.9%
hygroscopic weight gain ([3]; normal storage conditions, 25° C. and 60% RH): about 6.3%
crystal form after the DVS tests ([3]; sample re-identified after DVS): its crystal form did not change
Purity % ([4]; 40° C., 7 days, open vessel): 98.6%
Purity % ([4]; 40° C., 14 days, open vessel): 98.4%
Purity % ([4]; 40° C., 30 days, open vessel): 97.9%
Purity % ([4]; 60° C., 7 days, open vessel): 98.2%
Purity % ([4]; 60° C., 14 days, open vessel): 97.6%
Purity % ([4]; 60° C., 30 days, open vessel): 96.8%
Purity % ([4]; 75% RH, 7 days, open vessel): 99.0%
Purity % ([4]; 75% RH, 14 days, open vessel): 98.9%
Purity % ([4]; 75% RH, 30 days, open vessel): 99.0%
Purity % ([4]; 93% RH, 7 days, open vessel): 99.0%
Purity % ([4]; 93% RH, 14 days, open vessel): 98.9%
Purity % ([4]; 93% RH, 30 days, open vessel): 98.7%
Purity % ([4]; 4500 Lux, 7 days, open vessel): 98.6%
Purity % ([4]; 4500 Lux, 14 days, open vessel): 98.1%
Purity % ([4]; 4500 Lux, 30 days, open vessel): 97.8%
Purity % ([4]; Initial, 0 days): 99.0%
physical and chemical stabilities (conclusion) ([4]; standing 1 month under conditions other than the high temperature and light exposure conditions): good physical and chemical stabilities
Purity % ([5]; 25° C./60% RH, 7 days): 99.0%
Purity % ([5]; 25° C./60% RH, 14 days): 99.0%
Purity % ([5]; 25° C./60% RH, 30 days): 99.0%
Purity % ([5]; 25° C./60% RH, 60 days): 99.0%
Purity % ([5]; 40° C./75% RH, 7 days): 99.0%
Purity % ([5]; 40° C./75% RH, 14 days): 99.0%
Purity % ([5]; 40° C./75% RH, 30 days): 99.0%
Purity % ([5]; 40° C./75% RH, 60 days): 98.9%
Purity % ([5]; Initial, 0 days): 99.0%
physical and chemical stabilities (conclusion) ([5]; standing under long-term accelerated conditions for 2 months): good physical and chemical stabilities

Reference: US20260098027A1, “PHARMACEUTICALLY ACCEPTABLE SALT AND CRYSTAL FORM OF TETRAHYDRONAPHTHALENE DERIVATIVE, AND PREPARATION METHOD” (JIANGSU HENGRUI PHARMACEUTICALS CO., LTD., priority 2022, published 2026)
